US9409915B2, “Substituted aza-bicyclic imidazole derivatives useful as TRPM8 receptor modulators” (Janssen Pharmaceutica NV, priority 2010, dated 2016)
Structures can show the parent of a compound that is named as a salt.

Target: canine TRPM8 (Canis lupus familiaris, UniProt Q1A7N1)
Assay: In vitro canine TRPM8 functional assay (Ca2+-sensitive fluorescent dye, icilin activation)
Type: cell-based
Settings: HEK293 cells stably expressing canine TRPM8, icilin-induced Ca2+ response; for IC50: eight-point concentration-response
Method: The functional activity of representative compounds of the formula (I) of the present invention was quantified by measuring changes in intracellular calcium concentration using a Ca^2+-sensitive fluorescent dye. The changes in fluorescent signal were monitored by a fluorescence plate reader, either a FLIPR™ (Molecular Devices) or FDSS (Hamamatsu).
HEK293 cells stably expressing canine TRPM8 were routinely grown as monolayers in Dulbecco's minimum essential medium supplemented with 10% FBS, 2 mM L-glutamine, 100 units/mL penicillin, 100 ug/mL streptomycin and 400 μg/mL G418. Cells were maintained in 5% CO2 at 37° C. At 24 hr prior to assay, cells were seeded in black wall, clear-base poly-D-lysine coated 384-well plates (BD Biosciences, NJ, USA) at a density of 5,000 cells per well in culture medium and grown overnight in 5% CO2 at 37° C. On assay day, growth media was removed, and cells were loaded with Calcium 3 Dye (Molecular Devices) for 35 min at 37° C., under 5% CO2 and then incubated for 25 min at room temperature and atmosphere. Subsequently, cells were tested for agonist-induced increases in intracellular Ca^2+ levels using FLIPR™ or FDSS. Cells were treated with compounds of the formula (I) at varying concentrations and intracellular Ca^2+ was measured for 5 min prior to the addition of icilin to each well to achieve a final concentration that produces an approximately 80% maximal response.
Maximal fluorescence intensity (FI) achieved upon addition of icilin was exported from the FLIPR™ or FDSS software and further analyzed using GraphPad Prism 3.02 (Graph Pad Software Inc., CA, U.S.A.). Basal FI was subtracted prior to normalizing data to percent of maximal response. Curves were generated using the average of quadruplicate wells for each data point using nonlinear regression of either sigmoidal dose response or sigmoidal dose response (variable slope). Finally, the EC50 and IC50 values were calculated with the best-fit curve determined by GraphPad Prism

Sequence of canine TRPM8 (Q1A7N1 1-1104): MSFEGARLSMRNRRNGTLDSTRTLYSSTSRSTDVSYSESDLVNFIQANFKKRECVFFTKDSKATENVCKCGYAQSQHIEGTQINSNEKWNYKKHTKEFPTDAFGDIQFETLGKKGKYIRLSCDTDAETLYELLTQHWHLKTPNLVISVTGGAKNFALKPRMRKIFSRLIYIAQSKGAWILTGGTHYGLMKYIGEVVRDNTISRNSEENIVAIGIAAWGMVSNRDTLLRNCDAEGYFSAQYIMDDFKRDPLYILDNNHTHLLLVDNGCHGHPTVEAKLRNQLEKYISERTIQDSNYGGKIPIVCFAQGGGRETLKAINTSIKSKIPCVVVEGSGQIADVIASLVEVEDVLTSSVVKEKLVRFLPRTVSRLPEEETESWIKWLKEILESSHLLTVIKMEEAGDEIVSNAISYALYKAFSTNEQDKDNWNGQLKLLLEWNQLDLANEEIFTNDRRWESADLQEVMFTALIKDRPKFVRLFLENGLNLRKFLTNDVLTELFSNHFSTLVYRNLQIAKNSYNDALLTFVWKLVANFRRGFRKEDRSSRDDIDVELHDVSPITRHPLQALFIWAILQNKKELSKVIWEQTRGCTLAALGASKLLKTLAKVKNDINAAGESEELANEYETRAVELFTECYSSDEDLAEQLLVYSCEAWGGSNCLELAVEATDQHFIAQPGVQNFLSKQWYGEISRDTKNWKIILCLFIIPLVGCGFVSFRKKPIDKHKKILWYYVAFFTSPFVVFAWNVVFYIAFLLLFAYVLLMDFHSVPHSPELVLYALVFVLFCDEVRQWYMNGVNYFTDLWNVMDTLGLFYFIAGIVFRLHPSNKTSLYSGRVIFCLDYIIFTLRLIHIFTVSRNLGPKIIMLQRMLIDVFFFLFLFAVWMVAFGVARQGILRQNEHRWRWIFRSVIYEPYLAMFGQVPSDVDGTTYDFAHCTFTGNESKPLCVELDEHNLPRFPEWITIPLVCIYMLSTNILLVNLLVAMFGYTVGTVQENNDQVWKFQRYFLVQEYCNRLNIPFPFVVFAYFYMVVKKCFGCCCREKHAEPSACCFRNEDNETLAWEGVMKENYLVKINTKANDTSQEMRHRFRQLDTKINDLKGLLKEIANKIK

SMILES: CC(C)Oc1nc(-c2ccccc2OC(F)(F)F)cc2nc(-c3c(Cl)c(C(C)(C)C)nn3C)[nH]c12 [Compound 93, 2-(5-tert-Butyl-4-chloro-2-methyl-2H-pyrazol-3-yl)-4-isopropoxy-6-(2-trifluoromethoxyphenyl)-3H-imidazo[4,5-c]pyridine sodium salt]
- inhibition at 0.2 µM (0.2 μM compound): 99%
- IC50: 0.0012 µM

SMILES: Cn1nc(C(C)(C)C)c(Cl)c1-c1nc2nc(-c3ccccc3C(F)(F)F)cc(Cl)c2[nH]1 [compound 5, hydrochloride]
- inhibition at 0.2 µM (0.2 μM compound): 99%

SMILES: Cn1nc(C(C)(C)C)c(Cl)c1-c1nc2nc(-c3ccccc3C(F)(F)F)cnc2[nH]1 [Compound 95, 2-(5-tert-butyl-4-chloro-2-methyl-2H-pyrazol-3-yl)-6-(2-trifluoromethyl-phenyl)-1H-imidazo[4,5-b]pyrazine]
- inhibition at 0.2 µM (0.2 μM compound): 100%
- IC50: 0.027 µM

SMILES: COc1nc(-c2ccccc2C(F)(F)F)cc2[nH]c(-c3onc(C(C)(C)C)c3C#N)nc12 [Compound 13, 3-tert-Butyl-5-[4-methoxy-6-(2-trifluoromethyl-phenyl)-1H-imidazo[4,5-c]pyridine-2-yl]-isoxazole-4-carbonitrile methanesulfonic acid salt]
- inhibition at 0.2 µM (0.2 μM compound): 94%
- IC50: 0.046 µM

SMILES: Cn1nc(C(C)(C)C)c(C#N)c1-c1nc2cc(-c3ccccc3Cl)nc(OCCO)c2[nH]1 [Compound 83, 3-tert-Butyl-5-[6-(2-chloro-phenyl)-4-(2-hydroxy-ethoxy)-3H-imidazo[4,5-c]pyridin-2-yl]-1-methyl-1H-pyrazole-4-carbonitrile]
- inhibition at 0.2 µM (0.2 μM compound): 99%
- IC50: 0.0018 µM

SMILES: COc1nc(-c2ccccc2C(F)(F)F)cc2nc(-c3cc(C(C)(C)C)nn3C)[nH]c12 [Compound 80, 2-(5-tert-Butyl-2-methyl-2H-pyrazol-3-yl)-4-methoxy-6-(2-trifluoromethyl-phenyl)-3H-imidazo[4,5-c]pyridine methanesulfonic acid salt]
- inhibition at 0.2 µM (0.2 μM compound): 100%
- IC50: 0.042 µM

SMILES: Cn1nc(C(C)(C)C)c(C#N)c1-c1nc2cc(-c3ccccc3F)ncc2[nH]1 [Compound 44, 3-tert-Butyl-5-[6-(2-fluoro-phenyl)-3H-imidazo[4,5-c]pyridin-2-yl]-1-methyl-1H-pyrazole-4-carbonitrile hydrochloride]
- inhibition at 0.2 µM (0.2 μM compound): 98%
- IC50: 0.037 µM

SMILES: Cn1nc(C(C)(C)C)c(Cl)c1-c1nc2nc(-c3ccccc3Cl)ccc2[nH]1 [Compound 23, 2-(5-tert-Butyl-4-chloro-2-methyl-2H-pyrazol-3-yl)-5-(2-chloro-phenyl)-1H-imidazo[4,5-b]pyridine hydrochloride]
- inhibition at 0.2 µM (HEK293, 0.2 μM compound): 96%

SMILES: Cn1nc(C(C)(C)C)cc1-c1nc2cc(-c3ccccc3F)ncc2[nH]1 [Compound 42, 2-(5-tert-Butyl-2-methyl-2H-pyrazol-3-yl)-6-(2-fluoro-phenyl)-3H-imidazo[4,5-c]pyridine hydrochloride]
- inhibition at 0.2 µM (0.2 μM compound): 75%
- IC50: 0.059 µM

SMILES: COc1cc(-c2ccccc2C(F)(F)F)nc2nc(-c3cc(C(C)(C)C)nn3C)[nH]c12 [Compound 81, 2-(5-tert-Butyl-2-methyl-2H-pyrazol-3-yl)-7-methoxy-5-(2-trifluoromethyl-phenyl)-1H-imidazo[4,5-b]pyridine hydrochloride]
- inhibition at 0.2 µM (0.2 μM compound): 67%
- IC50: 0.12 µM

SMILES: Cn1nc(C(C)(C)C)c(C#N)c1-c1nc2cc(-c3ccccc3C(F)(F)F)nc(Cl)c2[nH]1 [Compound 75, 3-tert-Butyl-5-[4-chloro-6-(2-trifluoromethyl-phenyl)-3H-imidazo[4,5-c]pyridin-2-yl]-1-methyl-1H-pyrazole-4-carbonitrile Hydrochloride]
- inhibition at 0.2 µM (0.2 μM compound): 100%
- IC50: 0.024 µM

SMILES: Cn1nc(C(C)(C)C)c(Cl)c1-c1nc2cc(-c3ccccc3C(F)(F)F)ncc2[nH]1 [Compound 46, 2-(5-tert-Butyl-4-chloro-2-methyl-2H-pyrazol-3-yl)-6-(2-trifluoromethyl-phenyl)-3H-imidazo[4,5-c]pyridine hydrochloride]
- inhibition at 0.2 µM (0.2 μM compound): 99%
- IC50: 0.019 µM

SMILES: CC(C)Oc1nc(-c2ccccc2F)cc2nc(-c3c(Cl)c(C(C)(C)C)nn3C)[nH]c12 [Compound 92, 2-(5-tert-Butyl-4-chloro-2-methyl-2H-pyrazol-3-yl)-6-(2-fluorophenyl)-4-isopropoxy-3H-imidazo[4,5-c]pyridine sodium salt]
- inhibition at 0.2 µM (0.2 μM compound): 99%
- IC50: 0.0028 µM

SMILES: CC(C)Oc1nc(-c2ccccc2C(F)(F)F)cc2nc(-c3c(Cl)c(C(C)(C)C)nn3C)[nH]c12 [Compound 16, 2-(5-tert-Butyl-4-chloro-2-methyl-2H-pyrazol-3-yl)-4-isopropoxy-6-(2-trifluoromethyl-phenyl)-3H-imidazo[4,5-c]pyridine benzenesulfonic acid salt]
- inhibition at 0.2 µM (0.2 μM compound): 99%
- IC50: 0.00059 µM

SMILES: Cn1nc(C(C)(C)C)c(Cl)c1-c1nc2cc(-c3ccccc3C(F)(F)F)nc(OCCN3CCOCC3)c2[nH]1 [Compound 49, 2-(5-tert-Butyl-4-chloro-2-methyl-2H-pyrazol-3-yl)-4-(2-morpholin-4-yl-ethoxy)-6-(2-trifluoromethyl-phenyl)-3H-imidazo[4,5-c]pyridine]
- inhibition at 0.2 µM (0.2 μM compound): 100%
- IC50: 0.0064 µM

SMILES: Cn1nc(C(C)(C)C)c(C#N)c1-c1nc2cc(-c3ccccc3C(F)(F)F)nc(OCC(F)(F)F)c2[nH]1 [Compound 15, 3-tert-Butyl-1-methyl-5-[4-(2,2,2-trifluoro-ethoxy)-6-(2-trifluoromethyl-phenyl)-3H-imidazo[4,5-c]pyridine-2-yl]-1H-pyrazole-4-carbonitrile methanesulfonic acid salt]
- inhibition at 0.2 µM (0.2 μM compound): 100%
- IC50: 0.0018 µM

SMILES: Cn1nc(C(C)(C)C)c(Cl)c1-c1nc2nc(-c3ccccc3C(F)(F)F)ccc2[nH]1 [Compound 32, 2-(5-tert-Butyl-4-chloro-2-methyl-2H-pyrazol-3-yl)-5-(2-trifluoromethyl-phenyl)-1H-imidazo[4,5-b]pyridine hydrochloride]
- inhibition at 0.2 µM (0.2 μM compound): 100%
- IC50: 0.0076 µM

SMILES: Cn1nc(C(C)(C)C)c(Cl)c1-c1nc2cc(-c3ccccc3C(F)(F)F)nc(C#N)c2[nH]1 [compound 60, 2-(5-tert-butyl-4-chloro-2-methyl-2H-pyrazol-3-yl)-6-(2-trifluoromethyl-phenyl)-3H-imidazo[4,5-c]pyridine-4-carbonitrile benzenesulfonic acid salt]
- inhibition at 0.2 µM (0.2 μM compound): 99%

SMILES: Cn1nc(C(C)(C)C)c(Cl)c1-c1nc2cc(-c3ccccc3C(F)(F)F)nc(OCCN3CCCC3)c2[nH]1 [Compound 52, 2-(5-tert-Butyl-4-chloro-2-methyl-2H-pyrazol-3-yl)-4-(2-pyrrolidin-1-yl-ethoxy)-6-(2-trifluoromethyl-phenyl)-3H-imidazo[4,5-c]pyridine]
- inhibition at 0.2 µM (HEK293, 0.2 μM compound): 80%
- IC50: 0.079 µM

SMILES: Cn1nc(C(C)(C)C)c(Cl)c1-c1nc2nc(-c3ccccc3Cl)cnc2[nH]1 [Compound 110]
- % Inh @ 0.2 μM (0.2 μM compound): 99%
- IC50: 0.024 µM

SMILES: Cn1nc(C(C)(C)C)c(Cl)c1-c1nc2cc(-c3ccccc3C(F)(F)F)nc(OCC(=O)O)c2[nH]1 [Compound 88, [2-(5-tert-Butyl-4-chloro-2-methyl-2H-pyrazol-3-yl)-6-(2-trifluoromethyl-phenyl)-3H-imidazo[4,5-c]pyridin-4-yloxy]-acetic acid]
- inhibition at 0.2 µM (0.2 μM compound): 36%

SMILES: COc1nc(-c2ccccc2Cl)cc2nc(-c3cc(C(C)(C)C)nn3C)[nH]c12 [Compound 12, 2-(5-tert-Butyl-2-methyl-2H-pyrazol-3-yl)-6-(2-chloro-phenyl)-4-methoxy-3H-imidazo[4,5-c]pyridine]
- inhibition at 0.2 µM (0.2 μM compound): 101%
- IC50: 0.011 µM

SMILES: Cn1nc(C(C)(C)C)c(Cl)c1-c1nc2cc(-c3ccccc3Cl)nc(OCCN3CCCC3)c2[nH]1 [Compound 51, 2-(5-tert-Butyl-4-chloro-2-methyl-2H-pyrazol-3-yl)-6-(2-chloro-phenyl)-4-(2-pyrrolidin-1-yl-ethoxy)-3H-imidazo[4,5-c]pyridine]
- inhibition at 0.2 µM (0.2 μM compound): 88%
- IC50: 0.072 µM

SMILES: Cn1nc(C(C)(C)C)cc1-c1nc2nc(-c3ccccc3C(F)(F)F)ccc2[nH]1 [Compound 34, 2-(5-tert-Butyl-2-methyl-2H-pyrazol-3-yl)-5-(2-trifluoromethyl-phenyl)-1H-imidazo[4,5-b]pyridine]
- inhibition at 0.2 µM (0.2 μM compound): 89%
- IC50: 0.077 µM

SMILES: CN1CCN(c2nc(-c3ccccc3C(F)(F)F)cc3nc(-c4c(Cl)c(C(C)(C)C)nn4C)[nH]c23)CC1 [Compound 28, 2-(5-tert-Butyl-4-chloro-2-methyl-2H-pyrazol-3-yl)-4-(4-methyl-piperazin-1-yl)-6-(2-trifluoromethyl-phenyl)-3H-imidazo[4,5-c]pyridine methanesulfonic acid salt]
- inhibition at 0.2 µM (HEK293, 0.2 μM compound): 99%
- IC50: 0.011 µM
